Where only a bound is given, the exact number is not on record here.

Type in all cases: biochemical
One experiment has as its target LRRK2 (G2019S) (Homo sapiens, UniProt Q5S007, G2019S). As to the kind of experiment: LRRK2 G2019S enzyme inhibition, ADP-Glo kinase assay. On the set-up: purchased SignalChem L10-12GG. To be noted: ATP 25 μM. The method, then: To evaluate an inhibitory activity of the compound according to the present invention against LRRK2, LRRK2 (G2019S), DYRK1, CLK1, and TTK kinases, experiments were performed as follows.
Each of the Example compounds was reacted with a purified human LRRK2 G2019S (L10-12GG, SignalChem) enzyme to evaluate an ability to inhibit an enzyme using a method as described below. A composition of 40 mM Tris-HCl (pH 7.4), 20 mM MgCl2, 0.5 mg/mL BSA, and 50 μM DTT was used as a reaction buffer, and all reactions of test substances were performed in the reaction buffer. Each of the compounds was diluted […] from a 10 mM DMSO stock using a serial dilution method, and enzyme activities were measured at final compound concentrations of 50, 10, 2, 0.4, 0.08, 0.016, 0.0032, 0.00064, 0.000128, 0.0000256, 0.00000512, and 0.000001024 μM. In the test, purified ATP (25 μM) and an enzyme substrate (0.2 μg) were reacted with a human LRRK2 G2019S (16 ng) enzyme at 25° C. for 2 hours, and the enzyme activities were then determined using an in vitro ADP-Glo™ kinase assay (Promega). An enzyme-activity reaction solution, an ADP-Glo reaction solution, and an enzyme-ability detection solution were reacted at a ratio of 2:2:1 to measure a degree of inhibition of the enzyme activity with luminescence. The degree of inhibition of the enzyme activity according to the treatment concentration of each of the compounds was calculated based on the fluorescence of the enzyme activity of the solvent control which was not treated with the compound. In this case, the concentration of each of the compounds inhibiting 50% of the enzyme activity was determined to be an IC50 (nM) value, and calculated using Prism (Version 5.01; GraphPad) software.

Another experiment concerns the target T1, human GST-DYRK1A (Homo sapiens, UniProt Q13627).
T1 construct: purified human GST-DYRK1A (full length, Thermo Scientifics) enzyme; purchased Thermo Scientifics
Kind of experiment: GST-DYRK1A enzyme inhibition, ADP-Glo kinase assay. To be noted: ATP 10 μM, GST-DYRK1A full length, read-out: DYRK1 IC50. In short, it runs like this:
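Full-length enzyme (10 ng) was incubated with 10 μM ATP and a specific substrate for 1 h at 25 °C in 40 mM Tris-HCl pH 7.4, 20 mM MgCl2, 0.5 mg/mL BSA, 50 μM DTT. Luminescence was read against a solvent control, and IC50 values were derived from 3 data sets.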

For the next experiment, the target named is T2, human GST-CLK1 (Homo sapiens, UniProt P49759).
T2 construct: purified human GST-CLK1 (129-end, SignalChem) enzyme; purchased SignalChem
T2 sequence (P49759 129-484 limits assumed): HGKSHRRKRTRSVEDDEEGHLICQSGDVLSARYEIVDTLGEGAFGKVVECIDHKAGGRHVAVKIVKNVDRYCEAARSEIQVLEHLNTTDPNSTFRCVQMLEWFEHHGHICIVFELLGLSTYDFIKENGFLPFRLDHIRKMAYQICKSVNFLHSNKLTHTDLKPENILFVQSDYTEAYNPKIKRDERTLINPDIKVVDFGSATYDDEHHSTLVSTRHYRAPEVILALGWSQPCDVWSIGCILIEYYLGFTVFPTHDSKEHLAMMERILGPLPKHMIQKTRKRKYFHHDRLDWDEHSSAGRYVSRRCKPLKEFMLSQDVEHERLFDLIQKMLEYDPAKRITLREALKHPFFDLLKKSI
As to the kind of experiment: GST-CLK1 enzyme inhibition, ADP-Glo kinase assay. The conditions noted are these: ATP 10 μM, GST-CLK1 129-end. In short, it runs like this:
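ADP-Glo luminescence read-out, relative to untreated solvent control, gave IC50 (nM) from triplicate data sets. Reactions ran an hour at 25° C with 3 ng GST-CLK1 (residues 129-end), 10 μM ATP and specific substrate in Tris-HCl pH 7.4 buffer with MgCl2, BSA and DTT.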

Sequence of LRRK2 (G2019S) (Q5S007 970-2527 G2019S limits assumed): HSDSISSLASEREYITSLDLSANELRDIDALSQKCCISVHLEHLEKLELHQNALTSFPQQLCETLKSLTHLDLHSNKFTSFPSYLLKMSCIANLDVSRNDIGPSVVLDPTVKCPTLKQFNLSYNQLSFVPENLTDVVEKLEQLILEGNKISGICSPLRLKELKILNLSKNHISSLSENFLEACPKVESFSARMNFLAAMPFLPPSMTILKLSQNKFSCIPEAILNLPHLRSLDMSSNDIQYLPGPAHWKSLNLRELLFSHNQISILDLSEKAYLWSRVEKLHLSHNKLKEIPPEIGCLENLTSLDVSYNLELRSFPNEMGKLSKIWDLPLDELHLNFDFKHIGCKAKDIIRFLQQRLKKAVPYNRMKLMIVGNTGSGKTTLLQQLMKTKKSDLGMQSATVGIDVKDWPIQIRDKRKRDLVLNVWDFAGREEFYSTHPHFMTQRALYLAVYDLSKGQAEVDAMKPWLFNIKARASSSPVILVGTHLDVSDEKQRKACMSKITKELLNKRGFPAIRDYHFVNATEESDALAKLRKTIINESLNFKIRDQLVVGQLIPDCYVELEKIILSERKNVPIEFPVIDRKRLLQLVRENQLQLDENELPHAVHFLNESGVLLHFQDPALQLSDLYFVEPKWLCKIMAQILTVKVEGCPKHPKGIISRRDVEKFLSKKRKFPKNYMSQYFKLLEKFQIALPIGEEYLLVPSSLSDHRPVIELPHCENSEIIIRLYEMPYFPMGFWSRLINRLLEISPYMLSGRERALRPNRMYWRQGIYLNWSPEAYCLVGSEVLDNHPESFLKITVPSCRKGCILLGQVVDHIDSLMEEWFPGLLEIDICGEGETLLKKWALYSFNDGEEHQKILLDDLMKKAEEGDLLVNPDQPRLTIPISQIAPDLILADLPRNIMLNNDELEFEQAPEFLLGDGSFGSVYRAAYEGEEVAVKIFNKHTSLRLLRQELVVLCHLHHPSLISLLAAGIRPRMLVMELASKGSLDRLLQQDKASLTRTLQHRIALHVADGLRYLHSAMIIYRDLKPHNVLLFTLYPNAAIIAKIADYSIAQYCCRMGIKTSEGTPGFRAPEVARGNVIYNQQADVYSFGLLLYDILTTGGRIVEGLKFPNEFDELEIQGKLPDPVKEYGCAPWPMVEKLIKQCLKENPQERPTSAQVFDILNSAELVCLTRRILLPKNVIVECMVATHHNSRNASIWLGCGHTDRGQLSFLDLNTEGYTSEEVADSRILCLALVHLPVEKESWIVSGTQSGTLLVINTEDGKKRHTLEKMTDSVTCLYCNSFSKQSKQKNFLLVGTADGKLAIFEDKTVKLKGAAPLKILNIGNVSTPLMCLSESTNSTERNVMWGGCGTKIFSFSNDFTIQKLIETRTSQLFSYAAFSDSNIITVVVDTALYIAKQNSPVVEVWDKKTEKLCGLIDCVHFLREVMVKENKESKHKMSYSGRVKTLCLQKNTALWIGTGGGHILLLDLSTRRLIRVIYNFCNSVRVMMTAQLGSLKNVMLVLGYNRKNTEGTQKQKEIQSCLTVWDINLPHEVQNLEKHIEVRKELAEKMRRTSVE

For `COc1cc(S(=O)(=O)N2CCOCC2)ccc1Nc1nc(NC2CCC2)c2cc[nH]c2n1` [Example 22, N^4cyclobutyl-N^2-(2-methoxy-4-(morpholinosulfonyl)phenyl)-7H-pyrrolo[2,3-d]pyrimidine-2,4-diamine], the IC50 on LRRK2 (G2019S) is less than 100 nM; on human GST-DYRK1A, 301 to 1000 nM; against human GST-CLK1 it was 301 to 1000 nM.

Consider `CCNc1nc(Nc2ccc(P3(=O)CCN(C4CC4)CC3)cc2OC)nc2[nH]cc(C(F)(F)F)c12` [Example 398, 1-cyclopropyl-4-(4-((4-(ethylamino)-5-(trifluoromethyl)-7H-pyrrolo[2,3-d]pyrimidin-2-yl)amino)-3-methoxyphenyl)-1,4-azaphosphinane 4-oxide], for which the IC50 against LRRK2 (G2019S) was less than 100 nM; at human GST-DYRK1A, 101 to 300 nM; against human GST-CLK1 it was less than 100 nM.

For `COc1cc(P(C)(C)=O)ccc1Nc1nc(NCC(C)C)c2c(C(F)(F)F)c[nH]c2n1` [Example 370, (4-((4-(isobutylamino)-5-(trifluoromethyl)-7H-pyrrolo[2,3-d]pyrimidin-2-yl)amino)-3-methoxyphenyl) dimethyl-phosphine oxide], the IC50 at human GST-DYRK1A is 301 to 1000 nM; against human GST-CLK1, less than 100 nM.

In the case of `COc1cc(P2(=O)CCN(C3CC3)CC2)ccc1Nc1nc(NCC2CC2)c2c(C#N)c[nH]c2n1` [Example 304, 2-((4-(1-cyclopropyl-4-oxido-1,4-azaphosphinan-4-yl)-2-methoxyphenyl)a-mino)-4-((cyclo-propylmeth-yl)amino)-7H-pyrrolo[2,3-d]pyrimidine-5-carbonitrile], the IC50 at human GST-DYRK1A and against human GST-CLK1 was 301 to 1000 nM each time.

Regarding `CC(C)Nc1nc(Nc2ccc(C(=O)N3CCOCC3)c3c2OCC3)nc2[nH]cc(C#N)c12` [Example 352, 4-(isopropyl-amino)-2-((4-(morpholine-4-carbonyl)-2,3-dihydro-benzofuran-7-yl)amino)-7H-pyrrolo[2,3-d]pyrimidine-5-carbonitrile], the values for the IC50 on human GST-DYRK1A and at human GST-CLK1 were 301 to 1000 nM and less than 100 nM, respectively.

In the case of `N#Cc1c[nH]c2nc(Nc3ccc(C(=O)N4CCOCC4)c4c3OCCO4)nc(N[C@H]3CCOC3)c12` [Example 128, (S)-2-((8-(morpholine-4-carbonyl)-2,3-dihydrobenzo[b][1,4]dioxin-5-yl)amino)-4-((tetrahydrofuran-3-yl)amino)-7H-pyrrolo[2,3-d]pyrimidine-5-carbonitrile], the IC50 at human GST-DYRK1A lay in the range of 301 to 1000 nM; at human GST-CLK1, 101 to 300 nM.

As to `COc1cc(S(C)(=O)=O)ccc1Nc1nc(NCC2CCCC2)c2c(C(F)(F)F)c[nH]c2n1` [Example 206, N^4-(cyclopentylmethyl)-N^2-(2-methoxy-4-(methylsulfonyl)phenyl)-5-(trifluoromethyl)-7H-pyrrolo[2,3-d]pyrimidine-2,4-diamine], the IC50 at human GST-DYRK1A and against human GST-CLK1 was 301 to 1000 nM in each case.

Take `COc1cc(P(C)(C)=O)ccc1Nc1nc(NC2CC2)c2c(C#N)c[nH]c2n1` [Example 116, 4-(cyclopropylamino)-2-((4-(dimethylphosphoryl)-2-methoxyphenyl)amino)-7H-pyrrolo[2,3-d]pyrimidine-5-carbonitrile]: the IC50 at human GST-DYRK1A is 301 to 1000 nM; against human GST-CLK1, less than 100 nM.

On to `CCNc1nc(Nc2ccc(C(=O)N3CCN(C4COC4)CC3)c3c2OCCO3)nc2[nH]cc(C#N)c12` [Example 281, 4-(ethylamino)-2-((8-(4-(oxetan-3-yl)piperazine-1-carobnyl)-2,3-dihydrobenzo[b][1,4]dioxin-5-yl)amino)-7H-pyrrolo[2,3-d]pyrimidine-5-carbonitrile], for which the values for the IC50 at human GST-DYRK1A and at human GST-CLK1 were 101 to 300 nM and less than 100 nM, respectively.

Take `CC[C@H](C)Nc1nc(Nc2ccc(P3(=O)CCN(C4COC4)CC3)cc2OC)nc2[nH]cc(C#N)c12` [Example 297, (S)-4-(sec-butylamino)-2-((2-methoxy-4-(1-(oxetan-3-yl)-4-oxido-1,4-azaphosphinan-4-yl)phenyl)amino)-7H-pyrrolo[2,3-d]pyrimidine-5-carbonitrile]: the IC50 at human GST-DYRK1A is 301 to 1000 nM; against human GST-CLK1 it was 101 to 300 nM.

Consider `COc1cc(P2(=O)CCN(C3COC3)CC2)ccc1Nc1nc(NCC2CCC2)c2c(C#N)c[nH]c2n1` [Example 307, 4-((cyclo-butylmethyl)amino)-2-((2-methoxy-4-(1-(oxetan-3-yl)-4-oxido-1,4-azaphosphinan-4-yl)phenyl)amino)-7H-pyrrolo[2,3-d]pyrimidine-5-carbonitrile], for which the half-maximal inhibitory concentration (IC50) on human GST-DYRK1A lay within 301 to 1000 nM; against human GST-CLK1 it was 101 to 300 nM.

With `CCCNc1nc(Nc2ccc(C(=O)N3CCOCC3)c3c2OCC3)nc2[nH]cc(C(F)(F)F)c12` [Example 445, morpholino(7-((4-(propylamino)-5-(trifluoromethyl)-7H-pyrrolo[2,3-d]pyrimidin-2-yl)amino)-2,3-dihydrobenzo-furan-4-yl)methanone], the IC50 on human GST-DYRK1A and at human GST-CLK1 was less than 100 nM throughout.

With `CC[C@@H](C)Nc1nc(Nc2ccc(P3(=O)CCN(C4COC4)CC3)cc2OC)nc2[nH]cc(C#N)c12` [Example 295, (R)-4-(sec-butylamino)-2-((2-methoxy-4-(1-(oxetan-3-yl)-4-oxido-1,4-azaphosphinan-4-yl)phenyl)amino)-7H-pyrrolo[2,3-d]pyrimidine-5-carbonitrile], the IC50 is 301 to 1000 nM at human GST-DYRK1A and less than 100 nM on human GST-CLK1.

Turning to `N#Cc1c[nH]c2nc(Nc3ccc(C(=O)N4CC(CO)(CO)C4)c4c3OCCO4)nc(N[C@@H]3CCOC3)c12` [Example 335, (R)-2-((8-(3,3-bis(hydroxy-methyl)azetidine-1-carbonyl)-2,3-dihydrobenzo[b] [1,4]dioxin-5-yl)amino)-4-((tetrahydrofuran-3-yl)amino)-7H-pyrrolo[2,3-d]pyrimidine-5-carbonitrile], the half-maximal inhibitory concentration (IC50) is 101 to 300 nM at human GST-DYRK1A and less than 100 nM on human GST-CLK1.

On to `CCNc1nc(Nc2ccc(C(=O)N3CCN(C4COC4)CC3)c3c2OCCO3)nc2[nH]cc(C#N)c12` [Example 265, 4-(ethylamino)-2-((8-(4-(oxetan-3-yl)piperazine-1-carbonyl)-2,3-dihydrobenzo[b][1,4]dioxin-5-yl)amino)-7H-pyrrolo[2,3-d]pyrimidine-5-carbonitrile], for which the IC50 on human GST-DYRK1A and against human GST-CLK1 was 101 to 300 nM throughout.

Take `COc1cc(P(C)(C)=O)ccc1Nc1nc(NCC(C)C)c2c(C#N)c[nH]c2n1` [Example 255, 2-((4-(dimethylphosphoryl)-2-methoxyphenyl)amino)-4-(isobutylamino)-7H-pyrrolo[2,3-d]pyrimidine-5-carbonitrile]: the IC50 on human GST-DYRK1A and on human GST-CLK1 was 301 to 1000 nM in each case.

Regarding `CC[C@@H](C)Nc1nc(Nc2ccc(P3(=O)CCN(C4CC4)CC3)cc2OC)nc2[nH]cc(C#N)c12` [Example 294, (R)-4-(sec-butylamino)-2-((4-(1-cyclopropyl-4-oxido-1,4-azaphosphinan-4-yl)-2-methoxyphenyl)a-mino)-7H-pyrrolo[2,3-d]pyrimidine-5-carbonitrile], the IC50 is 301 to 1000 nM at human GST-DYRK1A and less than 100 nM against human GST-CLK1.

On to `CCCNc1nc(Nc2ccc(P3(=O)CCN(C4CC4)CC3)cc2OC)nc2[nH]cc(C#N)c12` [Example 282, 2-((4-(1-cyclopropyl-4-oxido-1,4-azaphosphinan-4-yl)-2-methoxyphenyl)amino)-4-(propylamino)-7H-pyrrolo[2,3-d]pyrimidine-5-carbonitrile], for which the results for the IC50 on human GST-DYRK1A and against human GST-CLK1 were 301 to 1000 nM and 101 to 300 nM, respectively.

`COCCNc1nc(Nc2ccc(C(=O)N3CCOCC3)c3c2OCC3)nc2[nH]cc(C#N)c12` [Example 358, 4-((2-methoxy-ethyl)ami-no)-2-((4-(morpholine-4-carbonyl)-2,3-dihydrobenzo-furan-7-yl)amino)-7H-pyrrolo[2,3-d]pyrimidine-5-carbonitrile]: the IC50 on human GST-DYRK1A and at human GST-CLK1 was 101 to 300 nM throughout.

Consider `CC[C@@H](C)Nc1nc(Nc2ccc(S(C)(=O)=O)cc2OC)nc2[nH]cc(C#N)c12` [Example 262, (R)-4-(sec-butylamino)-2-((2-methoxy-4-(methylsulfonyl)phenyl)amino)-7H-pyrrolo[2,3-d]pyrimidine-5-carbonitrile], for which the IC50 at human GST-DYRK1A and on human GST-CLK1 was 301 to 1000 nM in each case.
